Laboratory results taken from patent US20240360101A1, “PHARMACEUTICAL SALTS OF A CHK-1 INHIBITOR” (SENTINEL ONCOLOGY LIMITED, priority 2021, published 2024).
Structures can show the parent of a compound that is named as a salt.

Assays:
[1] = Gravimetric vapour sorption (GVS); format: physicochemical; details: for GVS weight loss, initial desorption cycle: from 50% RH to 0% RH; for GVS weight loss, initial desorption cycle / GVS water gain, subsequent sorption cycle: 25° C.; for GVS water gain, subsequent sorption cycle: up to 90% RH
Procedure: Sorption isotherms were obtained using a Hiden Isochema moisture sorption analyser (model IGAsorp), controlled by IGAsorp Systems Software V6.50.48. The sample was maintained at a constant temperature (25° C.) by the instrument controls. The humidity was controlled by mixing streams of dry and wet nitrogen, with a total flow of 250 ml·min−. The instrument was verified for relative humidity (RH) content by measuring three calibrated Rotronic salt solutions (10-50-88%). The weight change of the sample was monitored as a function of humidity by a microbalance (accuracy+/−0.005 mg). A defined amount of sample was placed in a tared mesh stainless steel basket under ambient conditions. A full experimental cycle typically consisted of three scans (sorption, desorption and sorption) at a constant temperature (25° C.) and 10% RH intervals over a 0-90% range (60 minutes for each humidity level).

MIA PaCa-2 cells = experiment: Gemcitabine combination cell assay; format: cell-based
Procedure: Exponentially growing MIA PaCa-2 (ATCC CRL-1420) cells are treated with trypsin to remove cells from the plate surface. Approximately 10,000 cells/well are plated in 96 well plates in RPMI containing 10% fetal bovine serum, 1% sodium pyruvate and 1% L-GlutaMax. Cells are allowed to adhere to the plate surface overnight. Serial half-log dilutions of Chk1 inhibitor test compounds and gemcitabine are made with a final highest concentration of 3000 nM and 100 nM, respectively. Chk1 inhibitors and gemcitabine are combined so that each concentration of Chk1 inhibitor is added to each concentration of gemcitabine. Each drug is also tested as a single agent. Drugs are added to adherent cells (in duplicate) and incubated for 72h. At 72h the cells are treated with Promega Cell Titer Glo reagent for approximately 15 minutes. Luminescence (relative light units, RLU) is recorded using a BMG Polarstar Omega plate reader. The single agent concentration that results in a 50% reduction in total signal (IC50) is calculated using PRISM software and a four-parameter non-linear regression curve fit. For combination studies the RLUs are plotted using PRISM on an XY plot with the gemcitabine concentration on the X axis and RLU on the Y axis. The RLU for each concentration of Chk1 inhibitor is plotted as a function of gemcitabine concentration. The IC50 for gemcitabine alone and at each concentration of Chk1 is determined using a four-parameter non-linear regression curve fit. The approximate concentration of Chk1 inhibitor that results in a two and ten-fold reduction in the IC50 of gemcitabine alone is calculated as an indication of synergistic potency.

[2] = Solubility of the salts in biorelevant media; format: physicochemical; details: for solubility FaSSGF (pH 1.37): Fasted State Simulated Gastric Fluid; for solubility FaSSGF (pH 1.37) / solubility FaSSIF (pH 6.71) / solubility FeSSIF (pH 5.14): 25° C., 24 h, HPLC; for solubility FaSSIF (pH 6.71): Fasted State Simulated Intestinal Fluid; for solubility FeSSIF (pH 5.14): Fed State Simulated Intestinal Fluid; for solubility in FaSSGF (gastric fluid) compared with the free base: result in words, maleate
Procedure: Biorelevant media (DI H2O, FeSSIF, FaSSIF and FaSSGF) (2 mL) was charged. Samples were left to equilibrate (25° C.) over 24 h. Solubility measurements were taken using HPLC (see Method 1 above).

[3] = Dynamic vapour sorption (DVS) analysis of maleate salt Pattern B; format: physicochemical
Procedure: A defined amount of the maleate salt Pattern B was placed in a tared mesh stainless steel basket under ambient conditions. A full experimental cycle consisted of […] (desorption, sorption repeat and desorption) at a constant temperature (25° C.) and 10% RH intervals over a 0-90% range (60 minutes for each humidity level).
Post cycle, the material was isolated at 0% RH and tested for crystallinity and then held at 90% RH for a minimum of 3 hours and re-tested for changes in crystallinity.

[4] = Two-week stability (HPLC purity); format: physicochemical
Procedure: HPLC analysis was carried out on an Agilent 1110/1200 series HPLC system. The column used was an Triart C18; 150×4.6 mm, 3.0 μm particle size (Ex Waters, PN: 186004644). The flow rate was 1.0 mL/min. Mobile phase A was Water:Trifluoroacetic acid (100:0.1%) and mobile phase B was Acetonitrile:Trifluoroacetic acid (100:0.1%). Detection was by UV at 302 nm. The injection volume was 5 μL, column temperature 40° C. and the following gradient was used: […]
Experimental: Maleate salt pattern B (30 mg) was placed into separate 15 mL type I glass vials. To these vials, a HDPE plastic cap was loosely attached to allow the ingress of moisture. The vials were then placed into ICH rated stability cabinets at 25° C./60% RH and 40° C./75% RH and in cold storage at 2-8° C. Following 2 weeks of storage these samples were removed from the stability cabinets and cold storage and the chemical purity assessed by HPLC (method 2). The relevant data was collected using a wavelength of 302 nm. The samples were prepared in MeCN:water (1:1).

## COc1cc(C2(F)CCN(C)CC2)ccc1-c1cc(Nc2cnc(C#N)cn2)n[nH]1 [compound of formula (1), 5-[[5-[4-(4-fluoro-1-methyl-4-piperidyl)-2-methoxy-phenyl]-1H-pyrazol-3-yl]amino]pyrazine-2-carbonitrile]
[1]; listed as free base
  GVS weight loss, initial desorption cycle: 2 wt %
  GVS water gain, subsequent sorption cycle: 8%
MIA PaCa-2 cells; Homo sapiens, compound alone, MIA PaCa-2 cells, 72h, Cell Titer Glo, read-out: Chk1 IC50
  IC50: 144 nM
MIA PaCa-2 cells; approximate concentration giving a 10-fold reduction in the IC50 of gemcitabine alone, MIA PaCa-2, 72h
  10 × LS: ~100 nM
MIA PaCa-2 cells; approximate concentration giving a two-fold reduction in the IC50 of gemcitabine alone, MIA PaCa-2, 72h
  2 × LS: ~3 nM
other
  Aqueous solubility mg/mL 24 h: 0.39 mg/mL
[2]; listed as free base
  solubility FaSSGF (pH 1.37): 2.93 mg/mL
  solubility FaSSIF (pH 6.71): 0.04 mg/mL
  solubility FeSSIF (pH 5.14): 0.6 mg/mL

## COc1cc(C2(F)CCN(C)CC2)ccc1-c1cc(Nc2cnc(C#N)cn2)n[nH]1 [maleate pattern B, 5-[[5-[4-(4-fluoro-1-methyl-4-piperidyl)-2-methoxy-phenyl]-1H-pyrazol-3-yl]amino]pyrazine-2-carbonitrile]
[3]; 25° C., ambient start
  DVS moisture associated before the first desorption: ca. 2.8 wt %
[3]; between 20 and 30% RH
  DVS main increase in weight, first sorption: ca. 2 wt %
[3]; isolated at 0% RH, then held at 90% RH, result in words
  crystalline form (XRPD) after DVS: mixed phase at 0% RH and pattern B at 90% RH
[4]; T = 0
  HPLC purity (HPLC method 2): 96.85
[4]; T = 2 weeks, 2-8° C.
  HPLC purity (HPLC method 2): 96.85
[4]; T = 2 weeks, 25° C./60% RH
  HPLC purity (HPLC method 2): 96.99
[4]; T = 2 weeks, 40° C./75% RH
  HPLC purity (HPLC method 2): 96.98
[4]; two weeks at 25° C./60% RH, 40° C./75% RH and 2-8° C., result in words
  stability on storage: stable
[1]; 0% RH and 90% RH, result in words
  crystalline form (XRPD) after GVS at extremes of humidity: 0% RH converts to pattern A, 90% RH no change
[1]
  GVS weight loss, initial desorption cycle: 2.5 wt %
  GVS water gain, subsequent sorption cycle: 4%
other
  Aqueous solubility mg/mL 24 h: 1.4 mg/mL
[2]
  solubility FaSSGF (pH 1.37): 3.97 mg/mL
  solubility FaSSIF (pH 6.71): 0.07 mg/mL
  solubility FeSSIF (pH 5.14): 0.57 mg/mL

## COc1cc(C2(F)CCN(C)CC2)ccc1-c1cc(Nc2cnc(C#N)cn2)n[nH]1 [maleate salt, 5-[[5-[4-(4-fluoro-1-methyl-4-piperidyl)-2-methoxy-phenyl]-1H-pyrazol-3-yl]amino]pyrazine-2-carbonitrile maleate]
[4]; two-week storage at 25° C./60% RH and 40° C./75% RH, result in words
  physical, polymorphic and chemical stability on storage: remained as a free flowing solid with no evidence of deliquescence or agglomeration and no change in polymorphic form with good chemical stability
[2]; listed as maleate
  solubility in FaSSGF (gastric fluid) compared with the free base: improved solubility over the free base in FaSSGF
[2]
  solubility in FaSSGF (gastric fluid) compared with the free base: improved solubility in gastric fluid
